Columns and labels:
[1] = molecular target: T1, ULK1 kinase (Homo sapiens, UniProt O75385); experiment: Biochemical assay for ULK1.2 (coupled pyruvate kinase/lactate dehydrogenase assay); settings: 19 nM ULK1 (residues 1-314, His tag), myelin basic protein, 1 mM ATP
T1 construct: purchased Eurofins 14-959
T1 sequence (O75385 with tags, fused parts or gaps): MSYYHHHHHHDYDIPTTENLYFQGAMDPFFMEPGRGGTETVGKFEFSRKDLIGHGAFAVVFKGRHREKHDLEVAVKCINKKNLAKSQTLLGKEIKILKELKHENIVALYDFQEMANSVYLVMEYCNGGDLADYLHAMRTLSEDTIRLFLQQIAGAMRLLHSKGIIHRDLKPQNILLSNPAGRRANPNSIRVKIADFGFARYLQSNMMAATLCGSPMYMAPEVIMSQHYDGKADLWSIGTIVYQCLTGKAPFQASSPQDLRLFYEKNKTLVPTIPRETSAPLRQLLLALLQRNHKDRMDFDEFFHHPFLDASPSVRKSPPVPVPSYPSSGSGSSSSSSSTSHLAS
Experimental: Biochemical Assay for ULK1.2 (SEQ. ID NO: 1)
Inhibition of ULK1 was measured by adding serial diluted test compound (final assay concentration of 1% DMSO). A decrease in absorption at 340 nm was monitored continuously for 6 hours at 30° C. on a multi-mode microplate reader (BioTek). The reaction rate was calculated using the 2-3 h time frame. The reaction rate at each concentration of compound was converted to percent inhibition using controls (i.e. reaction with no test compound and reaction with a known inhibitor) and IC50 values were calculated by fitting a four-parameter sigmoidal curve to the data using Prism (GraphPad software).

[2] = system: ULK kinase; experiment: pATG13 levels of mutant KRas MiaPaCa-2 cells after treatment with ULK inhibitors in combination with trametinib (ELISA); assay type: cell-based, human; settings: MiaPaCa-2 pancreatic cancer cells, 250 nM trametinib, overnight, pS318-ATG13
Experimental: (§1) MiaPaCa-2 human pancreatic cancer cells (10000 cells/well) were added to a 384-well tissue-culture treated plate in 50 μL of pre-warmed DMEM medium supplemented with 10% characterized fetal bovine serum (Invitrogen, Carlsbad, Calif.), 100 units/mL penicillin G, 100 µg/mL streptomycin, and 2.5% Horse Serum and allowed to grow overnight at 37° C., 5% CO2, and 95% humidity. The following day, 10 μL of media containing trametinib or DMSO as a control was added to wells. […] A dose response of a test compound (0.6 μL per well) was added. DMSO (0.6 μL) was added to control wells. The plate was briefly shaken to mix wells and then incubated at 37° C. overnight. The next day, the media was aspirated and cells were washed with Dulbecco's Phosphate Buffered Saline (Gibco). Cells were lysed using MPER lysis buffer (Pierce, Rockford, Ill.) containing Halt Phosphatase and Protease Inhibitors (Pierce, Rockford, Ill.) and Phosphatase inhibitor cocktail 2 (Sigma, St. Louis, Mo.) at 4° C. for 10 minutes with shaking.
(§2) Plate wells were washed with ELISA wash buffer. Cell lysate was added to wells and incubated at room temperature for 2 hours. Plate wells were washed with ELISA wash buffer. […] Plate wells were washed with ELISA wash buffer. […] Plate wells were washed with ELISA wash buffer. […] The reaction was stopped with 2N Sulfuric Acid. The plate was analyzed at on a plate reader measuring absorbance at 450 nm and 540 nm (background). Signal was calculated by first subtracting the background absorbance at 540 nm from the absorbance at 450 nm for each well. Next, the background corrected absorbance at 450 nm from blank wells was subtracted from test wells. Data was compared to control wells to determine % ATG13 phosphorylation. GraphPad Prism was used to calculate IC50 values.

[3] = system: ULK kinase; experiment: pATG13 levels of mutant KRas A549 cells after treatment with ULK inhibitors in combination with trametinib (ELISA); assay type: cell-based, human; settings: A549 (KRAS mutant) lung cancer cells, 250 nM trametinib, overnight, pS318-ATG13
Experimental: Cellular Inhibition of ULK Kinase Substrate ATG13 Protein pATG13 Levels of Mutant KRas A549 Cells after Treatment with ULK Inhibitors in Combination with Trametinib
as §1, with “A549 (KRAS mutant)” for “MiaPaCa-2”, “lung” for “pancreatic”, “(6,000” for “(10000”, “G, and” for “G,”, “μg/mL streptomycin” for “µg/mL streptomycin, and 2.5% Horse Serum”
as §2

[4] = molecular target: T2, LRRK2 kinase (Homo sapiens, UniProt Q5S007); experiment: Biochemical assay for LRRK2 (coupled pyruvate kinase/lactate dehydrogenase assay); settings: 26.4 nM LRRK2 (residues 970-2528), peptide substrate, 1 mM ATP
T2 construct: purchased Thermo Fisher
Experimental: Example 138. Biochemical Assay for LRRK2 (SEQ. ID NO: 4)
Activity of LRRK2 kinase was determined spectroscopically using a coupled pyruvate kinase/lactate dehydrogenase assay that continuously monitors the ATP hydrolysis-dependent oxidation of NADH (e.g., Schindler et al. Science (2000) 289: 1938-1942). Assays were conducted in 384-well plates (100 μL final volume) using 26.4 nM LRRK2 (Thermo Fisher), 0.1 mM peptide substrate ([…] (SEQ ID NO: 6)), 1.5 units pyruvate kinase, 2.1 units lactate dehydrogenase, 1 mM phosphoenol pyruvate, 0.28 mM NADH and 1 mM ATP in assay buffer (100 mM Tris, pH 7.5, 15 mM MgCl2, 0.5 mM DTT, 0.004% (w/v) BSA, and 0.004% Triton X-100). Inhibition of LRRK2 was measured by adding serial diluted test compound (final assay concentration of 1% DMSO). A decrease in absorption at 340 nm was monitored continuously for 6 hours at 30° C. on a multi-mode microplate reader (BioTek). The reaction rate was calculated using the 2-3 h time frame. The reaction rate at each concentration of compound was converted to percent inhibition using controls (i.e. reaction with no test compound and reaction with a known inhibitor) and IC50 values were calculated using software routines in Prism (GraphPad software).

[5] = molecular target: T3, ULK1 kinase (Homo sapiens, UniProt O75385, E37A/K38A); experiment: Biochemical assay for ULK1.3 (coupled pyruvate kinase/lactate dehydrogenase assay, peptide substrate); settings: 0.1 nM ULK1 (residues 1-283), 1 mM ATP
T3 construct: purchased Beryllium
T3 sequence (O75385 1-283 E37A/K38A): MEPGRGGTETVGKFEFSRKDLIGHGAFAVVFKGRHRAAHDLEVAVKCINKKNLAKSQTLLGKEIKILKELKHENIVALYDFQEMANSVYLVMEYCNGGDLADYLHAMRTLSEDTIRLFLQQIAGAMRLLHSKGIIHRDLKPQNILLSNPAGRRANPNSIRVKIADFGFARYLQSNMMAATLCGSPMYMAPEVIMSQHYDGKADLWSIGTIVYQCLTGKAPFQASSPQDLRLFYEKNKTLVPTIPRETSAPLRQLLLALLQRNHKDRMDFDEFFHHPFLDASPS
Experimental: Biochemical Assay for ULK1.3 (SEQ. ID NO: 2)
Inhibition of ULK1 was measured by adding serial diluted test compound (final assay concentration of 1% DMSO). A decrease in absorption at 340 nm was monitored continuously for 6 hours at 30° C. on a multi-mode microplate reader (BioTek). The reaction rate was calculated using the 2-3 h time frame. The reaction rate at each concentration of compound was converted to percent inhibition using controls (i.e. reaction with no test compound and reaction with a known inhibitor) and IC50 values were calculated using software routines in Prism (GraphPad software).

T2 sequence (Q5S007 with tags, fused parts or gaps): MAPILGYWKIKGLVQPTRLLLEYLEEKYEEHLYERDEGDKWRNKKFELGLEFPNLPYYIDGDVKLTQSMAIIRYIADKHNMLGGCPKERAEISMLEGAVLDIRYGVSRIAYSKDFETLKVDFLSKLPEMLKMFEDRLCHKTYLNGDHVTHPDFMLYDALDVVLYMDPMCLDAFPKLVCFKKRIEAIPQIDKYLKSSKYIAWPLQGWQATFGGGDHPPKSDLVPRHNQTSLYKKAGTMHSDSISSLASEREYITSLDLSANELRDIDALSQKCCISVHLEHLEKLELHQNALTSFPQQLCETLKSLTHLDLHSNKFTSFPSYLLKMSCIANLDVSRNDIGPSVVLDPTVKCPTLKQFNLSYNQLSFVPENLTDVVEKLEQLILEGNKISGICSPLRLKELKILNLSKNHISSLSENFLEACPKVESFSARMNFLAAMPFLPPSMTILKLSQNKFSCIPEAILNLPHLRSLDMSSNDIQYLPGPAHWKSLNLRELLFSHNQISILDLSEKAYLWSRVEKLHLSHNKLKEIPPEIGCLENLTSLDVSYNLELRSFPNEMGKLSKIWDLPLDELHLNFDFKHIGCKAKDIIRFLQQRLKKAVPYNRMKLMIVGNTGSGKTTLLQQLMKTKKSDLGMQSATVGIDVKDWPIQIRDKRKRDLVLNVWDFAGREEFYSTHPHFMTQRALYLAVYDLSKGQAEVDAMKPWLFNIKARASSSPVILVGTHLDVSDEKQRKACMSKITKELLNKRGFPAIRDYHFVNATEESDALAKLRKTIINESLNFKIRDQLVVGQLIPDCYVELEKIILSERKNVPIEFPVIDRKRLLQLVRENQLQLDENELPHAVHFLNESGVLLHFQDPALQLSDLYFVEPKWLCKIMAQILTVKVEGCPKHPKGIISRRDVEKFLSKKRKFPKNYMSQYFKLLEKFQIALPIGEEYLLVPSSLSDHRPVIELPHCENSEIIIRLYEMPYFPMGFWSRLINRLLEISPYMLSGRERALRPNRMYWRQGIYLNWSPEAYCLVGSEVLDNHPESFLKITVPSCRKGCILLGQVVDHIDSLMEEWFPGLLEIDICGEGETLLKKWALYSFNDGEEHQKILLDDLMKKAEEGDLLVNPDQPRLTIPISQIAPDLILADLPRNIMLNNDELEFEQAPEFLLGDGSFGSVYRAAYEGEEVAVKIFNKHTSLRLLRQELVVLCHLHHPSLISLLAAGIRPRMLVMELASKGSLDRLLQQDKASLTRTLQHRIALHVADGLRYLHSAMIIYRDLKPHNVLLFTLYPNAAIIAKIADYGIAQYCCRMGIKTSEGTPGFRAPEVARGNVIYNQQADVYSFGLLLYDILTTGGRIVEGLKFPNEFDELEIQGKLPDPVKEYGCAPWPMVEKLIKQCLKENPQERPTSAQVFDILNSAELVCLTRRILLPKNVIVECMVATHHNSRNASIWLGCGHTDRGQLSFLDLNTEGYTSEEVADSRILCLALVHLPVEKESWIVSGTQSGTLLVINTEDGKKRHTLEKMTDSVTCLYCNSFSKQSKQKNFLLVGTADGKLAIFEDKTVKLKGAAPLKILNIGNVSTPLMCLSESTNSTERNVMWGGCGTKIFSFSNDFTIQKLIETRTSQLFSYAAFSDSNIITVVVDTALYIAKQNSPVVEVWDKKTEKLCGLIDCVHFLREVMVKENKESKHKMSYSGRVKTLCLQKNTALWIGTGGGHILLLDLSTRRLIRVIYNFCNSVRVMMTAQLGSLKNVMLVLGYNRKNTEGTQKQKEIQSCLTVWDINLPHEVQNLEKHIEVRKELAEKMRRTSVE

| IC50 [1] [nM] | IC50 [2] [nM] | IC50 [3] [nM] | IC50 [4] [nM] | IC50 [5] [nM] | SMILES |
| --- | --- | --- | --- | --- | --- |
|  | 100 to 300 | 100 to 300 | 100 to 300 | 1 to 25 | CCc1cc(N2C[C@@H]3C[C@H]2CN3C)ccc1Nc1ncc(C(F)(F)F)c(NCCCN2CCCOC2=O)n1 [Example 120] |
|  | 100 to 300 | 100 to 300 | 300 to 600 | 1 to 25 | COCc1cc(N2CCN(C)CC2)ccc1Nc1ncc(C(F)(F)F)c(NCCCN2CCOCCC2=O)n1 [Example 127] |
|  | 10 to 100 | 10 to 100 | 1 to 100 | 1 to 25 | CN1C[C@H]2C[C@@H]1CN2c1ccc(Nc2ncc(C(F)(F)F)c(NCCCN3CCOCCC3=O)n2)c(C2CC2)c1 [Example 125] |
|  | 300 to 600 | 100 to 300 | 100 to 300 | 1 to 25 | CN1CCN(c2ccc(Nc3ncc(C(F)(F)F)c(NCCCN4CCOCCC4=O)n3)c(Br)c2)CC1 [Example 131] |
|  | 10 to 100 | 10 to 100 | 100 to 300 | 1 to 25 | CN1CCN(c2ccc(Nc3ncc(C(F)(F)F)c(NCCCN4CCC(C)(C)OC4=O)n3)c(C3CC3)c2)CC1 [Example 148] |
|  | 10 to 100 | 100 to 300 | 1 to 100 | 1 to 25 | CN(C)C1CN(c2ccc(Nc3ncc(C(F)(F)F)c(NCCCN4CCCCC4=O)n3)c(C3CC3)c2)C1 [Example 126] |
|  | 10 to 100 | 10 to 100 | 100 to 300 | 1 to 25 | CCc1cc(N2C[C@H]3C[C@@H]2CN3C)ccc1Nc1ncc(C(F)(F)F)c(NCCCN2CCOCCC2=O)n1 [Example 124] |

The next lines start with the compound.

| SMILES | IC50 [1] [nM] | IC50 [2] [nM] | IC50 [3] [nM] | IC50 [4] [nM] | IC50 [5] [nM] |
| --- | --- | --- | --- | --- | --- |
| Cc1cc(N2CCNCC2)ccc1Nc1ncc(C(F)(F)F)c(NCCCN2CCCCC2=O)n1 [Example 16] | 1 to 25 | 10 to 100 | 10 to 100 |  |  |
| Cc1cc(N2CCN(C)CC2)ccc1Nc1ncc(C(F)(F)F)c(NCCCN2CCCC2=O)n1 [Example 2] | 100 to 500 |  |  | 1 to 100 |  |
| Cc1cc(C2CCN(C)CC2)ccc1Nc1ncc(Cl)c(NCCCN2CCCCC2=O)n1 [Example 6] | > 500 |  |  |  |  |
| CN1CCN(c2ccc(Nc3ncc(C(F)(F)F)c(NCCCN4CCOCCC4=O)n3)c(C3CCCC3)c2)CC1 [Example 112] |  | 100 to 300 | 100 to 300 | 100 to 300 | 1 to 25 |
| CCc1cc(N2CCN(C)CC2)ccc1Nc1cc(NCCCN2CCOCCC2=O)c(C(F)(F)F)cn1 [Example 92] |  | 100 to 300 | 300 to 600 | > 600 | 1 to 25 |
| CN1C[C@@H]2C[C@H]1CN2c1ccc(Nc2ncc(C(F)(F)F)c(NCCCN3CCOCCC3=O)n2)c(C2CC2)c1 [Example 116] |  | 10 to 100 | 100 to 300 | 1 to 100 | 25 to 100 |
| Cc1cc(N2CCNCC2)ccc1Nc1ncc(C(F)(F)F)c(NCCCN2CCCC2=O)n1 [Example 3] | 100 to 500 |  |  |  |  |
| CC1(C)CCC(=O)N1CCCNc1nc(Nc2ccc(N3CCN(C4CC4)CC3)cc2)ncc1C1CC1 [Example 1] | > 500 |  |  | > 600 |  |
| Cc1cc(C2CCNCC2)ccc1Nc1ncc(Cl)c(NCCCN2CCCCC2=O)n1 [Example 5] | > 500 |  |  | 100 to 300 |  |
| CN1CCN(c2cc(C3CC3)c(Nc3ncc(C(F)(F)F)c(NCCCN4CCCCC4=O)n3)cc2F)CC1 [Example 35] |  | 100 to 300 | 100 to 300 | 1 to 100 | 25 to 100 |
| Cc1cc(N2CCN(C(C)C)CC2)ccc1Nc1ncc(C(F)(F)F)c(NCCCN2CCCCC2=O)n1 [Example 17] | 1 to 25 |  |  |  |  |
| O=C1CCOCCN1CCCNc1nc(Nc2ccc(N3CCN4CCC[C@@H]4C3)cc2C2CC2)ncc1C(F)(F)F [Example 107] |  | 10 to 100 | 10 to 100 | 100 to 300 | 1 to 25 |
| CCc1cc(N2CC3CCC(C2)N3C)ccc1Nc1ncc(C(F)(F)F)c(NCCCN2CCCCC2=O)n1 [Example 68] |  | 10 to 100 | 10 to 100 | 100 to 300 | 1 to 25 |

Reference: US11530206B2, “Phenylaminopyrimidine amide autophagy inhibitors and methods of use thereof” (Deciphera Pharmaceuticals, LLC, priority 2019, dated 2022)
